Laboratory results taken from patent US6218393A, “Anthranilic acid derivatives as multi drug resistance modulators” (priority 1997, dated 2001).

Columns and labels:
AR 1.0 cells [1] = assay: Drug accumulation assay: daunorubicin accumulation in AR 1.0 cells; type: cell-based; settings: Mus musculus, 100% = accumulation with verapamil 100 μM, 1 hr, 37° C.
Experimental: (§1) The EMT6 mouse mammary carcinoma cell line and the MDR resistant subline AR 1.0 were cultured in RPMI 1640 medium containing 10% foetal calf serum and 2 mM glutamine at 37° C. in 5% CO2. Cells were passaged between 1 in 200 and 1 in 2000 in the case of the parental cell line and between 1 in 20 and 1 in 200 in the case of the MDR resistant subline, after trypsinisation (0.25% trypsin, 0.2 gl^-1, EDTA).
AR 1.0 cells were seeded 48 hours prior to assay into 96 well opaque culture plates (Canberra Packard).

AR 1.0 cells [2] = assay: Potentiation index with doxorubicin titration; type: cell-based, mouse; settings: for Potentiation Index at RMA concentration 10 nM: Table C1, RMA 10 nM; for Potentiation Index at RMA concentration 30 nM: Table C1, RMA 30 nM; for Potentiation Index at RMA concentration 50 nM: Table C1, RMA 50 nM; for Potentiation Index at RMA concentration 100 nM: Table C1, RMA 100 nM
Experimental: as §1, with “EDTA). […]” for “EDTA).”
(b) Cells were cultured for four days with a titration of doxorubicin (0.263 nM-17.24 μM) in the presence of a fixed concentration of each compound. Proliferation was quantified as described by Skehen et al, loc cit. The IC50 (concentration required to reduce proliferation to 50% of the untreated controls) for doxorubicin alone and with each compound were derived and used to calculate the potentiation index (PI): [formula]

Row | Structure (SMILES) | IC50 (AR 1.0 cells [1]) [nM] | Potentiation Index at RMA concentration 10 nM (AR 1.0 cells [2]) | Potentiation Index at RMA concentration 30 nM (AR 1.0 cells [2]) | Potentiation Index at RMA concentration 50 nM (AR 1.0 cells [2]) | Potentiation Index at RMA concentration 100 nM (AR 1.0 cells [2])
1 | COc1cc2c(cc1OC)CN(CCOc1ccc(NC(=O)c3ccccc3NC(=O)c3cnc4ccccc4n3)cc1)CC2 [compound 9632, Quinoxaline-2-carboxylic acid (2-{4-[2-(6,7-dimethoxy-3,4-dihydro-1H-isoquinolin-2-yl)-ethoxy]-phenylcarbamoyl}-phenyl)-amide] | 431 | 1.1 | 2.1 | 2.7 | 8
2 | COc1cc2c(cc1OC)CN(CCc1cccc(NC(=O)c3ccccc3NC(=O)c3cnc4ccccc4c3)c1)CC2 [compound 9633, Quinoline-3-carboxylic acid (2-{3-[2-(6,7-dimethoxy-3,4-dihydro-1H-isoquinolin-2-yl)-ethyl]-phenylcarbamoyl}-phenyl)-amide] | 593 | 1.0 | 1.3 | 3.4 | 13.7
3 | COc1cc2c(cc1OC)CN(CCc1ccc(NC(=O)c3ccccc3NC(=O)c3csc(C)n3)cc1)CC2 [compound 9635, 2-Methyl-thiazole-4-carboxylic acid (2-{4-[2-(6,7-dimethoxy-3,4-dihydro-1H-isoquinolin-2-yl)-ethyl]-phenylcarbamoyl}-phenyl)-amide] | 669 |  | 1.3 | 2 | 7
4 | COc1cc2c(cc1OC)CN(CCc1ccc(NC(=O)c3ccccc3NC(=O)c3coc(C)n3)cc1)CC2 [compound 9638, 2-Methyl-oxazole-4-carboxylic acid (2-{4-[2-(6,7-dimethoxy-3,4-dihydro-1H-isoquinolin-2-yl)-ethyl]-phenylcarbamoyl}-phenyl)-amide] | 552 |  | 1.1 | 1.5 | 2.6

Continued, in another order:

Row | IC50 (AR 1.0 cells [1]) [nM] | Structure (SMILES) | Potentiation Index at RMA concentration 10 nM (AR 1.0 cells [2]) | Potentiation Index at RMA concentration 30 nM (AR 1.0 cells [2]) | Potentiation Index at RMA concentration 50 nM (AR 1.0 cells [2]) | Potentiation Index at RMA concentration 100 nM (AR 1.0 cells [2])
5 | 184 | CCN(CCc1ccc(NC(=O)c2ccccc2NC(=O)c2cnc3ccccc3c2)cc1)Cc1ccc(OC)c(OC)c1 [compound 9636] | 2.6 | 22 | 46 | 131
6 | 108 | COc1ccc(CN(C)CCc2ccc(NC(=O)c3ccccc3NC(=O)c3cnc4ccccc4c3)cc2)cc1OC(C)C [compound 9639, Quinoline-3-carboxylic acid [2-(4-{2-[(3-isopropoxy-4-methoxy-benzyl)-methyl-amino]-ethyl}-phenylcarbamoyl)-phenyl]-amide] | 2.6 | 34 | 78 | 136
7 | 194 | COc1cc(CN(C)CCc2ccc(NC(=O)c3ccccc3NC(=O)c3cnc4ccccc4c3)cc2)cc(OC)c1OC [compound 9640, Quinoline-3-carboxylic acid [2-(4-{2-[methyl-(3,4,5-trimethoxy-benzyl)-amino]-ethyl}-phenylcarbamoyl)-phenyl]-amide] | 1 | 2.5 | 4.6 | 23.8
8 | 1.9 | CCCCN(CCc1ccc(NC(=O)c2ccccc2NC(=O)c2cnc3ccccc3c2)cc1)Cc1ccc(OC)c(OC)c1 [compound 9641, Quinoline-3-carboxylic acid [2-(4-{2-[butyl-(3,4-dimethoxy-benzyl)-amino]-ethyl}-phenylcarbamoyl)-phenyl]-amide] | 1.5 | 17 | 46 | 162
